Test results published in publication PMC11554305, “Functional identification of soluble uric acid as an endogenous inhibitor of CD38” (eLife, 2024).

Columns and labels:
[1] = tested on: primed THP-1 cells; experiment: Canonical inflammasome assay, IL-1β release in primed THP-1 cells; type: cell-based, human
Description: Human IL-1β, mouse IL-1β, IL-6, IL-18, TNF-α, and CXCL1 levels were measured according to the protocols provided by the manufacturer. Serum samples were diluted before ELISA when applicable. In this study, all the samples were frozen after collection and thawed before ELISA.
Naïve THP-1 cells were primed with 0.5 μM phorbol 12-myristate 13-acetate for 3 hr the day before stimulation. Primed THP-1 cells were pre-incubated in RPMI-1640 medium in the presence or absence of sUA (5 or 10 mg/dL) for 2 hr. The cells were then washed twice with sterile PBS, and were stimulated with MSU crystals, cLPS, zymosan, and ATP in serum-free RPMI-1640 medium for 4 hr.
After stimulation, the culture medium was collected and centrifuged at 3000 rpm, 4°C for 5 min, the supernatant was collected and stored at –30°C until ELISA.

[2] = biological target: T1, CD38 (Homo sapiens, UniProt P28907); experiment: Hydrolase and cyclase activities of human and murine CD38; type: biochemical
T1 construct: host or cells: recombinant hCD38, cells and mouse tissues
T1 sequence (P28907 43-300): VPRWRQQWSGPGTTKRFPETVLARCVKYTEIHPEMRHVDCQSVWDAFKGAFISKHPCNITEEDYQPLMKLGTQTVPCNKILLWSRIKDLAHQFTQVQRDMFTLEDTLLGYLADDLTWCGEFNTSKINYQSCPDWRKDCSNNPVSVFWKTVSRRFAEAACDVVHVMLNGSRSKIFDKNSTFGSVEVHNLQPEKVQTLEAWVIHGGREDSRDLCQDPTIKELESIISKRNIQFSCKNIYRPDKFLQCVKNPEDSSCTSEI

[3] = biological target: T2, nicotinamide phosphoribosyltransferase (NAMPT) (Homo sapiens, UniProt P43490); experiment: NAMPT activity (colorimetric kit); type: biochemical; details: Figure 3—figure supplement 2A
T2 construct: purchased MBL CY-1251V2
T2 sequence (P43490 whole entry): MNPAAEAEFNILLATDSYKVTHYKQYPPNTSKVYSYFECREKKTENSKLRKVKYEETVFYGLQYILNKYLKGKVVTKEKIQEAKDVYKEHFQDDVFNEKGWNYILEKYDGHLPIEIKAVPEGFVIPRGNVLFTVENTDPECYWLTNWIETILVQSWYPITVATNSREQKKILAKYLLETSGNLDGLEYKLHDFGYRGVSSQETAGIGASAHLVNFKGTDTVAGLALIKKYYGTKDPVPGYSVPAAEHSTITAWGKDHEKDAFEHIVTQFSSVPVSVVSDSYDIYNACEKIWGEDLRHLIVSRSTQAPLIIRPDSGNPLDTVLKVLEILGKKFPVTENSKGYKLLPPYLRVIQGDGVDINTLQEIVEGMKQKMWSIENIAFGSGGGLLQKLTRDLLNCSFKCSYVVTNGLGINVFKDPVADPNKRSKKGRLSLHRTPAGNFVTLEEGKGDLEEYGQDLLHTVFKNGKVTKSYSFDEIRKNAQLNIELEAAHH
Description: The activities of NAMPT and PARP were measured using commercial kits, HT Universal Colorimetric PARP Assay Kit, and CycLex NAMPT Colorimetric Assay Kit Ver.2. The solutions of ligands were freshly prepared (pH was adjusted to 7.4) and were immediately used for enzyme assays.

[4] = biological target: T3, CD38 (Homo sapiens, UniProt P28907); experiment: Hydrolase activity of THP-1 cells; type: biochemical; details: sUA 0–500 μM, Figure 1—figure supplement 1A
T3 construct: cells or tissues were directly homogenized in blank reaction buffer on ice; host or cells: THP-1
T3 sequence (P28907 1-300): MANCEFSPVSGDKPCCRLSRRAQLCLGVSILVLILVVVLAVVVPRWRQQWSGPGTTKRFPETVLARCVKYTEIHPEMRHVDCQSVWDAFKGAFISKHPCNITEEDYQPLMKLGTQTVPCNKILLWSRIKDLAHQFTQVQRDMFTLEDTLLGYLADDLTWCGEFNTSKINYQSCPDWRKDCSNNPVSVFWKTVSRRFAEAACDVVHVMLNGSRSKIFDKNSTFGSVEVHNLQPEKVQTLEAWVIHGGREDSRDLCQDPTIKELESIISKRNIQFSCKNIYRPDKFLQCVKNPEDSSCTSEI
Description: The hydrolase activity of CD38 was measured according to a previous report ([de Oliveira et al., 2018]) with minor modifications. CD38 hydrolase activity was measured using 50 μM ε-NAD^+ as a substrate in hydrolase reaction buffer (250 mM sucrose, 40 mM Tris-HCl, pH 7.4). Briefly, cells or tissues were directly homogenized in blank reaction buffer on ice, and recombinant hCD38 was diluted in blank reaction buffer for subsequent assays. The tissue homogenates were centrifuged to collect the supernatant for enzyme assays. The loading volume of enzyme was 4–30 μL, the total volume of the reaction system was 3 mL. To detect enzyme inhibition, except when specified, the ligands were directly dissolved in hydrolase reaction buffer before pH adjustment, after which, the pH was immediately adjusted to 7.4. All reaction buffers, with or without ligands, were freshly prepared before each assay. For measurement of hydrolase activity, 3 mL reaction buffer containing enzyme, ε-NAD^+, and ligands at indicated concentrations was maintained at 37°C with constant stirring.
The reaction buffer for hydrolase or cyclase assays was excited at 300 nm, and fluorescence emission was measured every second at 410 nm by Shimazu RF-6000 spectrofluorometer. Hydrolase or cyclase activity was calculated from the linear portion of the time course by fitting a linear function to the data points recorded within 5 min.

Induction of IL-1β release by sUA itself [1]: did not induce IL-1β release | Reversibility of the inhibitory effects on CD38 ([2]; 30 min pre-incubation with 500 μM sUA, 100-fold dilution, hCD38, A549, THP-1): reversible | Mode of inhibition of CD38 ([2]; different substrate concentrations, Figure 1C, D): non-competitive inhibitor | Effect on NAMPT activity [3]: without affecting the activities | Ki [4]: 75.5 µM
SMILES: O=c1[nH]c(=O)c2[nH]c(=O)[nH]c2[nH]1 [sUA, uric acid]
IL-1β release after stimulation ([1]; sUA pre-incubation 2 hr, then MSU crystals, cLPS, zymosan or ATP): moderately limited IL-1β release
